Experimental data reported in patent US20040086942A1, “Ige receptor antagonists” (priority 2003, published 2004).
Entries after “also recorded” stand apart in the source; their conditions may differ. Read-outs that look alike come from different tables or passages of the source. Where a SMILES comes first, the peptide text is derived from it. Bridges are numbered along the chain shown (N, C = ends). Where no end group is shown, it is not given here.

Experiments:
[1] = solubility in assay/binding buffer; format: physicochemical; conditions: assay buffer of the IgE binding inhibition assay
[2] = biological target: T1, alpha subunit of the human FcεRI receptor (Homo sapiens, UniProt P12319); assay: cell-based 125I-IgE binding inhibition assay on CHO FcεRI+ cells
T1 construct: expressed in transfected cells; host or cells: Chinese hamster ovary (CHO FcεRI+) cells
T1 sequence (P12319 26-257): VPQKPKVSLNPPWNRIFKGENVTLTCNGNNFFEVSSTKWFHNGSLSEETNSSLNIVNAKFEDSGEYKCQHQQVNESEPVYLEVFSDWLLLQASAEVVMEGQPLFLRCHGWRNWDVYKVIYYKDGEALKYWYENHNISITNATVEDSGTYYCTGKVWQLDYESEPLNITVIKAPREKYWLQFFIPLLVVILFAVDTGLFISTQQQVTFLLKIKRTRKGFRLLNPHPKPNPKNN
Outline: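 Peptides, serially diluted 1:3 from 50-500 uM, preincubated 1 h at room temperature on CHO cells expressing human FcεRI alpha, then 1.5 nM 125I-IgE added for 45-60 min at 4 °C. Buffer F12/DMEM, 1% BSA, 0.05% NaN3, pH 7.2. Bound counts by gamma counting; IC50 from 4-parameter fits.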

[3] = 2D NMR structural score versus reference peptide; format: physicochemical; parameters: key to Structure Score: +++, peptide structurally similar to reference; +, structurally similar to reference but significantly less stable; +/−, peptide has some elements of stable structure, but the conformation differs from the reference structure; −, peptide is predominantly unstructured; *peptide IGE037 (SEQ ID NO:128) was initially unstructured (monomeric form), but became structured after spontaneous dimer formation; conditions: reference IGE134
Outline: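 Backbone ¹H resonances assigned by 2D NMR and ³JHN-Hα coupling constants measured against a reference peptide. Structure scored similar when chemical shifts, coupling constants and NOEs are consistent with the reference structure.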

[4] = disulfide reshuffling of monomer peptide to homodimer in solution; format: physicochemical; conditions: in water or buffer at neutral pH
From the text: This change occurs slowly, over a 3-12 day period following the solubilization of the peptide in water or buffer at neutral pH. […] Additional support for the occurrence of a change came from NMR data detecting a change in the one-dimensional NMR spectrum. Also HPLC reverse phase data indicated a change in retention time that correlated with the activity and the conversion of a monomer to a dimer. Final confirmation of the formation of an active dimer followed the syntheses of both parallel (IGE088, SEQ ID NO:128, 128) and anti-parallel (IGE089, SEQ ID NOS:128, 157) […] disulfide-linked dimer peptides. Both peptide forms were assayed for activity in inhibiting I^125-IgE binding to cell surface expressed FcεRI.

[5] = biological target: T2, FcεRI (Homo sapiens, UniProt P12319); assay: competitive phage ELISA on baculovirus-derived FcεRI; format: binding; conditions: compared with the parent
T2 construct: human FcεRI(aa 1-176) was expressed using a baculovirus secretion expression system; host or cells: Hi-5 insect cells infected with baculovirus (virus produced in Sf9; transfer vector pAcGP67)
T2 sequence (P12319 26-201): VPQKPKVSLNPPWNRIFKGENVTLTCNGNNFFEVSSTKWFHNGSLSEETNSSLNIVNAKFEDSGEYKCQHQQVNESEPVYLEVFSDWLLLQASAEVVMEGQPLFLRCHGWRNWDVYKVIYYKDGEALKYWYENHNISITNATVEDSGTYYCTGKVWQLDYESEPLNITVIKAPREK
From the text: The extracellular domain of the alpha subunit of the human FcεRI(aa 1-176) was expressed using a baculovirus secretion expression system (Pharminten). cDNA encoding this domain was obtained through PCR of a plasmid containing a full length clone. The DNA fragment was ligated into baculovirus tranfer vector pAcGP67 and along with BaculoGold linearized baculovirus DNA was transfected into Sf9 cells Spodoptera frugiperda insect cells for baculovirus production (Pharmingen). Soluble FcεRI was affinity purified from the growth media of baculovirus infected Hi-5 insect cells (Expression Systems).
Phage ELISA assays were carried out as described (Lowman, 1998, supra), using Nunc Maxisorp™ plates coated with a 2 μg/mL solution of baculovirus-derived FcεRI. Peptide-phage were pre-incubated for 5-10 min with serial dilutions of receptor, then added to the receptor-coated plate. After incubation for 1 h at room temperature, the plates were washed and an anti-phage HRP-conjugated antibody (Pharmacia) was added. After further incubation for 20 min, plates were again washed and developed using the substrate OPD (Sigma). Optical density at 492 nm was read and plotted as a function of FcεRI concentration to determine an IC50 of inhibition by each peptide-phage variant.
A phage-based alanine scanning approach was used to map the FcεRI binding determinants of IGE134 (SEQ ID NOS:155, 171), as described above for IGE120 (SEQ ID NO:131, 159). […] Additionally, combinations of Ala mutations, deletions, and other substitutions were tested.

[6] = biological target: T3, FcεRIα (Homo sapiens, UniProt P12319); assay: surface plasmon resonance biosensor direct-binding assay
T3 construct: human FcεRI(aa 1-176) was expressed using a baculovirus secretion expression system; host or cells: Hi-5 insect cells infected with baculovirus (virus produced in Sf9; transfer vector pAcGP67)
T3 sequence (P12319 26-201): T2 sequence (P12319 26-201)
Experimental: Several peptides were also tested in a direct-binding assay using a surface plasmon resonance biosensor (Lofas & Johnsson, J. Chem. Soc. Commun. 21, 1526-1528 (1990)). FcεRIα, produced in baculovirus infected insect cells, was immobilized by the surface thiol method (BIAcore Methods Manual Supplement 5a, BIAcore, Inc., Piscataway, N.J.). Briefly, receptor was reacted with 2-(2pyridinyldithio)ethaneamine hydrochloride (PDEA; Natake & Swaisgood, J. Biochem. 74, 77-86 (1973)), desalted into 10 mM sodium acetate (pH 4.8) and stored in aliquots at −80″C. Thawed PDEA-receptor was injected over carboxymethyl-dextran (B1 or CM5, BIAcore, Inc.) biosensor chips preactivated with N-ethyl-N′-(3-dimethylaminopropyl)-carbodiimide hydrochloride (EDC) and N-hydroxysuccinimide (NHS), cystamine, and DTT. Following coupling, reactive groups on the chip were quenched with […] and ethanolarine. Serial dilutions of peptide in running buffer (phosphate-buffered saline containing 0.05% Tween-20, 0.01% sodium azide) were injected over the immobilized receptor, and the net amount of peptide bound at steady-state was measured as the net change in response (RU) at a point just prior to termination of peptide injection, compared to a running-buffer baseline. Binding affinities (Table 10) are reported as the midpoint (EC50) of a 4-parameter fit to the peptide saturation curve.

[7] = biological target: T4, RBL-48 cells (Homo sapiens, UniProt P12319); assay: histamine release assay: induction of histamine release by peptide; conditions: peptide 0.5 mM on RBL-48 cells
T4 sequence (P12319 26-257): T1 sequence (P12319 26-257)
Experimental: Peptides were assayed in a histamine release assay (Lowe et al., (1995) J. Immunol. Methods, 184:113-122) to determine: (1) if the peptides could trigger histamine release and (2) if the peptides could prevent histamine release in the presence of ragweed and ragweed specific IgE. Rat basophil cell line RBL-48, which expresses the human FcεRI alpha subunit was cultured overnight in Falcon 96 flat well microtiter dishes. The cells were washed three times with growth media and then incubated in Iscove's MEM medium containing 10% fetal bovine serum and 3 USP units per milliliter of heparin (histamine assay buffer).

CSCC[C@H](NC(=O)[C@@H]1CSSC[C@H](NC(=O)[C@@H](NC(=O)[C@H](C)NC(=O)[C@H](CCC(=O)O)NC(=O)[C@H](C)N)[C@@H](C)O)C(=O)N[C@@H]([C@@H](C)O)C(=O)N[C@@H](CCC(=O)O)C(=O)NCC(=O)N2CCC[C@H]2C(=O)N[C@@H](Cc2c[nH]c3ccccc23)C(=O)NCC(=O)N[C@@H](Cc2c[nH]c3ccccc23)C(=O)N[C@@H](C(C)C)C(=O)N1)C(=O)N[C@@H](C)C(=O)N[C@@H](C)C(=O)N[C@@H](CC(=O)O)C(=O)O [AEATCTEGPWGWVCMAAD] (H-AEATCTEGPWGWVCMAAD-OH; disulfide 5-14)
solubility in the assay/binding buffer [1]: not soluble; also recorded: insoluble

CC(C)C[C@H](NC(=O)[C@H](C)N)C(=O)N[C@H]1CSSC[C@@H](C(=O)N[C@@H](Cc2ccc(O)cc2)C(=O)N[C@H](C(N)=O)C(C)C)NC(=O)[C@H](C(C)C)NC(=O)[C@H](C)NC(=O)[C@@H]2CCCN2C1=O [IGE037, ALCPAVCYV-nh2] (H-ALCPAVCYV-NH2; disulfide 3-7; N-terminus assumed)
IC50 ([2]; IGE037: initially, read-out: IC50): ~300 µM
Structure Score [3]: +++*
period of conversion of monomer to disulfide linked homodimer [4]: 3 to 12 days

CC(C)C[C@@H]1NC(=O)[C@H](CCC(=O)O)NC(=O)[C@H](Cc2ccc(O)cc2)NC(=O)[C@@H]2CSSC[C@H](NC(=O)[C@H](CC(C)C)NC(=O)[C@H](CCC(=O)O)NC(=O)[C@H](Cc3ccc(O)cc3)NC(=O)[C@H](CC(=O)O)NC1=O)C(=O)N1CCC[C@H]1C(=O)N[C@@H](CC(=O)O)C(=O)N[C@@H](C(C)C)C(=O)N[C@H](C(=O)N[C@@H](Cc1ccc(O)cc1)C(=O)N[C@H](C(N)=O)C(C)C)CSSC[C@H](NC(=O)[C@H](CCC(N)=O)NC(=O)[C@@H](N)C(C)C)C(=O)N1CCC[C@H]1C(=O)N[C@@H](Cc1c[nH]cn1)C(=O)N[C@@H](Cc1ccccc1)C(=O)N2 [IGE134] (H-VQCPHFCYELDYELCPDVCYV-NH2; disulfide 3-19, 7-15; N-terminus assumed)
IC50 ([2]; average IC50, inhibition assay (Table 9)): 0.032 µM
Structure Score [3]: +++
relative binding affinity (in words) [5]: improved affinity over IGE122
Kd [6]: 0.032 µM

PRCTEGPWGWVCM (disulfide 3-12 (inferred); not fully specified (C-terminus))
levels of histamine released [7]: equivalent to that of the negative control
